The record followed here is US8735412B2, “Sulfoximine-substituted anilinopyrimidine derivatives as CDK inhibitors, the production thereof, and use as medicine” (Bayer Intellectual Property GmbH, priority 2008, dated 2014).

Like-named read-outs stand apart in the source and are kept apart here.

The target in data set [1] is T1, VEGF receptor tyrosine kinase-2 (Homo sapiens, UniProt P35968).
T1 construct: GST; made in house; host or cells: baculovirus-infected insect cells (Sf9)
Put plainly: VEGF receptor-2 kinase assay (Assay 3). The settings on record: 8 μM ATP, poly-(Glu4Tyr) substrate; read-out: VEGF-R2 (Assay 3) Concentration for 50% inhibition of enzyme activity, IC50. It counts as biochemical. As for the experimental part: 10.3 Assay 3: VEGF Receptor-2 Kinase Assay
Recombinant VEGF receptor tyrosine kinase-2 was purified as GST fusion protein from baculovirus-infected insect cells (Sf9). Poly-(Glu4Tyr), used as kinase substrate, was purchased from the company Sigma.
VEGF receptor tyrosine kinase (90 ng/measuring point) was incubated for 10 min at 22° C. in the presence of various concentrations of test substances (0 μM, and within the range 0.001-30 μM) in 30 μl assay buffer [40 mM Tris/HCl pH5.5, 10 mM MgCl2, 1 mM MnCl2, 3 μM Na ortho-vanadate, 1.0 mM dithiothreitol, 8 μM adenosine triphosphate (ATP), 0.96 μg/measuring point poly-(Glu4Tyr), 0.2 μCi/measuring point ^33P-gamma ATP, 1.4% dimethylsulfoxide]. The reaction was stopped by adding EDTA solution (250 mM, pH8.0, 15 μl/measuring point).
From each reaction mixture, 15 μl was applied to P30 filter strips (from Wallac), and unincorporated ^33P-ATP was removed by washing the filter strips three times, for 10 min each time, in 0.5% phosphoric acid. After drying the filter strips for 1 hour at 70° C., the filter strips were covered with scintillator strips (MeltiLex™ A, from Wallac) and stoved for 1 hour at 90° C. The amount of incorporated ^33P (substrate phosphorylation) was determined by scintillation measurement in a gamma-radiation measuring instrument (Wallac). The measured data were standardized to 0% inhibition (enzyme reaction without inhibitor) and 100% inhibition (all assay components except enzyme). The IC50 values were determined by means of a 4-parameter fit using the company's own software.

In data set [2] the test system is HeLa-MaTu human cervical carcinoma xenograft. The experiment in a line: HeLa-MaTu cervical tumor xenograft model on NMRI nude mice. It counts as in vivo. The settings on record: oral; for tolerability of the cyclic treatment regimen: 10 mg/kg; for response vs control in vivo at 10 mg/kg: Mus musculus, read-out: treatment/control ratio T/C (tumor weight). As for the experimental part:
HeLa-MaTu (EPO-GmbH, Berlin) human cervical carcinoma cells, which were grown in cell culture, were implanted subcutaneously in the flank of female NMRI nude mice. […] The study was terminated as soon as the tumors in one of the groups reached a size of approx. 150 mm^2.
(§1) The growth-inhibiting effect of the compounds was tested in the HeLa-MaTu cervical tumor model as xenograft on NMRI nude mice. […] Treatment of the established tumors was begun on day 4 after inoculation of the tumors.
as §1, §1
The study was designed for determining the initial response of a human cervical carcinoma xenograft model to treatments with the 5-Br comparative substance V12. The growth-inhibiting effect of the compounds was tested in the HeLa-MaTu cervical tumor model as xenograft on NMRI nude mice. V12 was dissolved completely in the solubilizer 40% polyethylene glycol 400 (PEG 400)/60% water to a final concentration of 0.7 mg/ml (group 2), 0.85 mg/ml (group 3), or 1.0 mg/ml (group 4). Treatment of the established tumors was begun on day 4 after inoculation of the tumors.
HeLa-MaTu (EPO-GmbH, Berlin) human cervical carcinoma cells, which were grown in cell culture, were implanted subcutaneously in the flank of female NMRI nude mice. […] The study was terminated as soon as the tumors in one of the groups reached a size of approx. 160 mm^2.
(§2) The growth-inhibiting effect of the compounds was tested in the HeLa-MaTu cervical tumor model as xenograft on NMRI nude mice. […] Treatment of the established tumors was begun on day 5 after inoculation of the tumors.
as §2, §2
The following test groups were used: • Group 1: Control, treatment with solubilizer (40% PEG 400/60% water) • Group 2: Compound according to WO 2005/037800 prepared according to preparation V14 disclosed above • (6 mg/kg, oral, 2x daily on day 5, 6, 12, 13, 19, 20) • Group 3: Compound according to WO 2005/037800 prepared according to preparation V14 disclosed above • (8 mg/kg, oral, 2× daily on day 5, 6, 12, 13, 19, 20) • Group 4: Compound according to WO 2005/037800 prepared according to preparation V14 disclosed above • (10 mg/kg, oral, 2× daily on day 5, 6, 12, 13, 19, 20)
The study was designed for determining the initial response of a human cervical carcinoma xenograft model to treatments with the 5-Br comparative substance V14. The growth-inhibiting effect of the compounds was tested in the HeLa-MaTu cervical tumor model as xenograft on NMRI nude mice. V14 was dissolved completely in the solubilizer 40% polyethylene glycol 400 (PEG 400)/60% water to a final concentration of 0.6 mg/ml (group 2), 0.8 mg/ml (group 3), or 1.0 mg/ml (group 4). Treatment of the established tumors was begun on day 5 after inoculation of the tumors.

Data set [3] concerns HeLa-MaTu cervical carcinoma cells. The experiment in a line: Proliferation assay (Assay 4), crystal violet staining. It counts as cell-based. The conditions noted are these: Homo sapiens, 96 h, 4 days incubation; read-out: HeLa-MaTu (Assay 4) Concentration for 50% inhibition of cellular proliferation, IC50. As for the experimental part:
10.4 Assay 4: Proliferation Assay
Cultivated human HeLa-MaTu cervical carcinoma cells (obtained from EPO-GmbH, Berlin) were plated at a density of 3000 cells/measuring point in a 96-well multititer is plate in 200 μl of growth medium (DMEM/HAMS F12, 2 mM L-glutamine, 10% fetal calf serum). After 24 hours the cells of one plate (zero-point plate) were stained with crystal violet (see below), whereas the medium of the other plates was replaced with fresh culture medium (200 μl), to which the test substances had been added at various concentrations (0 μM, and in the range 0.01-30 μM; the final concentration of the solvent dimethylsulfoxide was 0.5%). The cells were incubated for 4 days in the presence of the test substances. Cellular proliferation was determined by staining the cells with crystal violet: the cells were fixed by adding 20 μl/measuring point of an 11% glutaraldehyde solution for 15 min at room temperature. After washing the fixed cells with water three times, the plates were dried at room temperature. The cells were stained by adding 100 μl/measuring point of a 0.1% crystal violet solution (pH adjusted to pH3 by adding acetic acid). After washing the stained cells with water three times, the plates were dried at room temperature. The dye was dissolved by adding 100 μl/measuring point of a 10% acetic acid solution. The extinction was determined photometrically at a wavelength of 595 nm. The percentage change in cell growth was calculated by standardization of the measured values to the extinction values of the zero-point plate (=0%) and the extinction of the untreated (0 μM) cells (=100%). The measured data were standardized to 0% inhibition (cell proliferation without inhibitor) and 100% inhibition (zero-point plate). The IC50 values were determined by means of a 4-parameter fit using the company's own software.

T1 sequence (P35968 20-1356): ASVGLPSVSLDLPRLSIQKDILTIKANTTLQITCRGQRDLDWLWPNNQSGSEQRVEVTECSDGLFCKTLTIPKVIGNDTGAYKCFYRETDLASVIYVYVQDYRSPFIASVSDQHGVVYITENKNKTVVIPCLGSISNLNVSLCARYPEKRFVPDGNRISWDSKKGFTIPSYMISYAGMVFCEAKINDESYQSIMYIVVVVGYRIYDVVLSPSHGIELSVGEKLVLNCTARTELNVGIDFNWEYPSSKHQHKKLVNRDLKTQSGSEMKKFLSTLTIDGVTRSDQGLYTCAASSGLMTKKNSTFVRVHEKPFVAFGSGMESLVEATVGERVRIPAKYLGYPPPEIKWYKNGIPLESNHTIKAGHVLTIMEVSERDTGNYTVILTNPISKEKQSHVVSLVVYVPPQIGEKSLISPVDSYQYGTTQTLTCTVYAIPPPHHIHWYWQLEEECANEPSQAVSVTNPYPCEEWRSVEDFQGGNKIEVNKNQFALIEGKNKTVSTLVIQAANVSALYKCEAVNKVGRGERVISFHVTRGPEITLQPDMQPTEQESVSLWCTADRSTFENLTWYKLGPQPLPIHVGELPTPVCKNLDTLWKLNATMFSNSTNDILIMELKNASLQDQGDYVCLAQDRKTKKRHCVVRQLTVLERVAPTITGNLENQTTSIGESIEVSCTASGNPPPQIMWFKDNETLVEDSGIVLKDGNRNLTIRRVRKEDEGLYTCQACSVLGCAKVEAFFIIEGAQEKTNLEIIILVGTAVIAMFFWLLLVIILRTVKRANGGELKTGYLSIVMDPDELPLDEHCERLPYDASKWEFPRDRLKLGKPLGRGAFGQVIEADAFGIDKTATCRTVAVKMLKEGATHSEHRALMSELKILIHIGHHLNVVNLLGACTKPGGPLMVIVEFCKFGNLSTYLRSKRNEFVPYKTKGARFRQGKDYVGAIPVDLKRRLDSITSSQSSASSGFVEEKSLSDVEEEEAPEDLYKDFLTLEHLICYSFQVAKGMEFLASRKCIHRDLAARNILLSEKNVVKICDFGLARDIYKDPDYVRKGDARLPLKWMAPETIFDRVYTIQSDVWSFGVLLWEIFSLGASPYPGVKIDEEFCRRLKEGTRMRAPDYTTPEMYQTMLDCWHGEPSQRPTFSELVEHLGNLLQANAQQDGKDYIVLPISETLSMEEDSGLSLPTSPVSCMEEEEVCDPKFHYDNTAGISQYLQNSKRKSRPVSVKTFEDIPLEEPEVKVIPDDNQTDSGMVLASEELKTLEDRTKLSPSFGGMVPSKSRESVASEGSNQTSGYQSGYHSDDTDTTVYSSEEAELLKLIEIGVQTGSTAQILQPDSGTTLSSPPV

With `C[C@@H](O)[C@@H](C)Oc1nc(Nc2ccc(S(=N)(=O)C3CC3)cc2)ncc1Br` (single isomer, unassigned) [Example V14], the values for the IC50 in data set [1] and in data set [3] were 91 nM and 10 nM, respectively. For the same molecule, the “reduction of tumor weight at the end of the study to % of the control group” value in data set [2] (10 mg/kg (group 4), 2x daily on day 5, 6, 12, 13, 19, 20, day 20) amounted to 44%. The “tolerability of the cyclic treatment regimen” value in data set [2] (2x daily on day 5, 6, 12, 13, 19, 20) is “well-tolerated”. In addition, the “effect on tumor growth (in words)” value in data set [2] (6, 8, 10 mg/kg, 2x daily on day 5, 6, 12, 13, 19, 20) is recorded as “dose-dependent inhibition of tumor growth”. Also, the response vs control in vivo at 10 mg/kg in data set [2] (480 h, 10 mg/kg (group 4), 2x daily on day 5, 6, 12, 13, 19, 20, day 20) is 44%.

Take `CCS(=N)(=O)c1ccc(Nc2ncc(Br)c(N[C@H](C)[C@@H](C)O)n2)cc1` (some centres unmarked) [Example V12]: the IC50 turned out to be 32 nM in data set [1] and 13 nM in data set [3]. For the same molecule, the “tolerability of the cyclic treatment regimen” value in data set [2] (2x daily on day 4, 5, 11, 12, 17, 18, 23, 24) is “well-tolerated”. The “effect on tumor growth (in words)” value in data set [2] (7, 8.5, 10 mg/kg, 2x daily on day 4, 5, 11, 12, 17, 18, 23, 24) is “dose-dependent weak inhibition of tumor growth”. The response vs control in vivo at 10 mg/kg in data set [2] (672 h, 10 mg/kg (group 4), 2x daily on day 4, 5, 11, 12, 17, 18, 23, 24, day 28) amounted to 51%.
